Data reported in US12220419B2, “BCL-2 inhibitors” (Newave Pharmaceutical Inc., priority 2018, dated 2025).
pIC50: −log10 of the molar value. Structures can show the parent of a compound that is named as a salt. Where two headings read alike, the source gives them in different places.

What was measured:
BCL-2 = BCL-2 (Homo sapiens (Human), UniProt P10415); assay: BCL-2 competition binding (fluorescence polarization) assay; settings: read-out: BCL2 IC50
Description: Biological Example 1: BCL-2 Competition Binding (Fluorescence Polarization) Assay
The fluorescence-labeled 23 amino acid peptide BH3 was purchased from CalBiochem ([…]). […] This binding assay was performed in 96-well plate and with each assay contained 15 and 30 nM of labeled peptide and purified BCL-2 protein (purchased from R&D Systems, Inc). The assay buffer contained 20 mM Hepes (pH 7.0), 50 mM KCl, 5 mM MgCl2, 20 mM Na2MoO4, 0.1 mg/ml Bovine Gamma Globulin and 0.01% NP40. Compounds were diluted in DMSO and added to the final assay with concentration range from 20 μM to 2 nM. The polarization degree (mP) value was determined by BioTek Synergy II with background subtraction after 3 hours of incubation at room temperature. IC50 was calculated using Prism software with sigmoidal dose-response curve fitting. ABT-737 was used as reference compound. Such assays, carried out with a range of doses of test compounds, allowed the determination of an approximate IC50 value.

[1] = test system: BCL-2-dependent acute lymphoblastic leukemia (ALL) cell line RS4;11; assay: In vitro anti-proliferation assay (ATPlite luminescence) in RS4;11; assay type: cell-based; settings: RS4;11 cells, about 72 hours, medium with 5% FBS or 10% normal human serum
Description: Cell antiproliferation was assayed by PerkinElmer ATPlite™ Luminescence Assay System. Briefly, the various test cancer cell lines were plated at a density of about 1×10^4 cells per well in Costar 96-well plates, and were incubated with different concentrations of compounds for about 72 hours in medium supplemented with 5% FBS or 10% normal human serum (NHS). One lyophilized substrate solution vial was then reconstituted by adding 5 mL of substrate buffer solution, and was agitated gently until the solution was homogeneous. About 50 μL of mammalian cell lysis solution was added to 100 μL of cell suspension per well of a microplate, and the plate was shaken for about five minutes in an orbital shaker at 700 rpm. This procedure was used to lyse the cells and to stabilize the ATP. Next, 50 μL substrate solution was added to the wells and microplate was shaken for five minutes in an orbital shaker at 700 rpm. Finally, the luminescence was measured by a PerkinElmer TopCount® Microplate Scintillation Counter. Such assays, carried out with a range of doses of test compounds, allowed the determination of the cellular anti-antiproliferative IC50 of the compounds of the present invention.

[2] = fluorescein-labeled BH3 peptide 15 nM, purified BCL-2 protein 30 nM, 3 hours incubation at room temperature

Chain of BCL-2 (P10415 whole entry): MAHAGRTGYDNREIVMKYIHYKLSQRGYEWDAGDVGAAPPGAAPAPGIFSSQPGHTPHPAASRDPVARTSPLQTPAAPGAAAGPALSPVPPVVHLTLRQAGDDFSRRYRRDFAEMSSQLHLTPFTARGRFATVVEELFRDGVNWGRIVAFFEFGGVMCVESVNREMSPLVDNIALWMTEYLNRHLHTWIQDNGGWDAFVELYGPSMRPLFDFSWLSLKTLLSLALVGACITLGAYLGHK

Row | SMILES | pIC50 (BCL-2; [2]) | pIC50 [1] | pIC50 (BCL-2)
1 | CC1(C)CCC(CN2CCN(c3ccc(C(=O)NS(=O)(=O)c4ccc(NCCOCCOCCOCCOCCNc5cccc6c5C(=O)N(C5CCC(=O)NC5=O)C6=O)c([N+](=O)[O-])c4)c(N4CCCOc5nc6[nH]ccc6cc54)c3)CC2)=C(c2ccc(Cl)cc2)C1 (centres unmarked) [Example 51, 4-(4-[[2-(4-chlorophenyl)-4,4-dimethylcyclohex-1-en-1-yl]methyl]piperazin-1-yl)-N-[4-(15-[[2-(2,6-dioxopiperidin-3-yl)-1,3-dioxoisoindol-4-yl]amino]-4,7,10,13-tetraoxa-1-azapentadecan-1-yl)-3-nitrobenzenesulfonyl]-2-[14-oxa-2,4,10-triazatricyclo[7.5.0.0^[3,7]]tetradeca-1(9),2,5,7-tetraen-10-yl]benzamide] | 9.05 | 7.21 | –
2 | Cc1ncsc1-c1ccc(CNC(=O)[C@@H]2C[C@@H](O)CN2C(=O)[C@@H](NC(=O)CCOCCOCCN2CCN(CCNc3ccc(S(=O)(=O)NC(=O)c4ccc(N5CCN(CC6=C(c7ccc(Cl)cc7)CC(C)(C)CC6)CC5)cc4N4CCCOc5nc6[nH]ccc6cc54)cc3[N+](=O)[O-])CC2)C(C)(C)C)cc1 [Example 56] | 9.40 | 7.20 | –
3 | CC1(C)CCC(CN2CCN(c3ccc(C(=O)NS(=O)(=O)c4ccc(NCCN5CCN(CCOCCOCCNc6cccc7c6C(=O)N(C6CCC(=O)NC6=O)C7=O)CC5)c([N+](=O)[O-])c4)c(N4CCCOc5nc6[nH]ccc6cc54)c3)CC2)=C(c2ccc(Cl)cc2)C1 (centres unmarked) [Example 50, 4-(4-[[2-(4-chlorophenyl)-4,4-dimethylcyclohex-1-en-1-yl]methyl]piperazin-1-yl)-N-(4-[[2-(4-[2-[2-(2-[[2-(2,6-dioxopiperidin-3-yl)-1,3-dioxoisoindol-4-yl]amino]ethoxy)ethoxy]ethyl]piperazin-1-yl)ethyl]amino]-3-nitrobenzenesulfonyl)-2-[14-oxa-2,4,10-triazatricyclo[7.5.0.0^[3,7]]tetradeca-1(9),2,5,7-tetraen-10-yl]benzamide] | – | 7.37 | 9.22
4 | Cc1ncsc1-c1ccc(CNC(=O)[C@@H]2C[C@@H](C)CN2C(=O)[C@@H](NC(=O)CCOCCOCCOCCNc2ccc(S(=O)(=O)NC(=O)c3cc(N4CCN(CC5=C(c6ccc(Cl)cc6)CC(C)(C)CC5)CC4)ccc3N3CCCOc4nc5[nH]ccc5cc43)cc2[N+](=O)[O-])C(C)(C)C)cc1 [Example 59, (2S,4R)-1-[(2S)-2-[3-[2-(2-[2-[(4-[[5-(4-[[2-(4-chlorophenyl)-4,4-dimethylcyclohex-1-en-1-yl]methyl]piperazin-1-yl)-2-[14-oxa-2,4,10-triazatricyclo[7.5.0.0^[3,7]]tetradeca-1(9),2,5,7-tetraen-10-yl]phenyl]formamidosulfonyl]-2-nitrophenyl)amino]ethoxy]ethoxy)ethoxy]propanamido]-3,3-dimethylbutanoyl]-4-methyl-N-[[4-(4-methyl-1,3-thiazol-5-yl)phenyl]methyl]pyrrolidine-2-carboxamide] | 8.96 | 7.08 | –
5 | Cc1ncsc1-c1ccc(CNC(=O)[C@@H]2C[C@@H](O)CN2C(=O)[C@@H](NC(=O)CCOCCOCCOCCOCCOCCNc2ccc(S(=O)(=O)NC(=O)c3ccc(N4CCN(CC5=C(c6ccc(Cl)cc6)CC(C)(C)CC5)CC4)cc3N3CCCOc4nc5[nH]ccc5cc43)cc2[N+](=O)[O-])C(C)(C)C)cc1 [Example 55, (2S,4R)-1-[(2S)-2-[1-[(4-[[4-(4-[[2-(4-chlorophenyl)-4,4-dimethylcyclohex-1-en-1-yl]methyl]piperazin-1-yl)-2-[14-oxa-2,4,10-triazatricyclo[7.5.0.0^[3,7]]tetradeca-1(9),2,5,7-tetraen-10-yl]phenyl]formamidosulfonyl]-2-nitrophenyl)amino]-3,6,9,12,15-pentaoxaoctadecan-18-amido]-3,3-dimethylbutanoyl]-4-hydroxy-N-[[4-(4-methyl-1,3-thiazol-5-yl)phenyl]methyl]pyrrolidine-2-carboxamide] | 8.96 | 7.12 | –
6 | CNc1ccc2c(n1)OCCCN2c1cc(N2CCN(CC3=C(c4ccc(Cl)cc4)CC(C)(C)CC3)CC2)ccc1C(=O)NS(=O)(=O)c1ccc(NC[C@H]2COCCO2)c([N+](=O)[O-])c1 [Example 42, 4-(4-[[2-(4-chlorophenyl)-4,4-dimethylcyclohex-1-en-1-yl]methyl]piperazin-1-yl)-N-(4-[[(2S)-1,4-dioxan-2-ylmethyl]amino]-3-nitrobenzenesulfonyl)-2-[7-(methylamino)-2H,3H,4H-pyrido[2,3-b][1,4]oxazepin-1-yl]benzamide hydrochloride] | 8.39 | < 6.00 | –
7 | CC1(C)CCC(c2ccc(Cl)cc2)=C(CN2CCN(c3ccc(C(=O)NS(=O)(=O)c4ccc(NC[C@H]5COCCO5)c([N+](=O)[O-])c4)c(N4CCCOc5nc6[nH]ccc6cc54)c3)CC2)C1 [Example 73, 4-(4-[[2-(4-chlorophenyl)-5,5-dimethylcyclohex-1-en-1-yl]methyl]piperazin-1-yl)-N-(4-[[(2S)-1,4-dioxan-2-ylmethyl]amino]-3-nitrobenzenesulfonyl)-2-[14-oxa-2,4,10-triazatricyclo[7.5.0.0^[3,7]]tetradeca-1(9),2,5,7-tetraen-10-yl]benzamide] | 9.05 | 8.51 | –
8 | O=C(NS(=O)(=O)c1ccc(NC[C@H]2COCCO2)c([N+](=O)[O-])c1)c1ccc(N2CCN(CC3=C(c4ccc(Cl)cc4)CCCC3)CC2)cc1N1CCCOc2nc3[nH]ccc3cc21 [Example 74, 4-(4-[[2-(4-chlorophenyl)cyclohex-1-en-1-yl]methyl]piperazin-1-yl)-N-(4-[[(2S)-1,4-dioxan-2-ylmethyl]amino]-3-nitrobenzenesulfonyl)-2-[14-oxa-2,4,10-triazatricyclo[7.5.0.0^[3,7]]tetradeca-1(9),2,5,7-tetraen-10-yl]benzamide] | 9.52 | 8.77 | –
9 | Cc1ncsc1-c1ccc(CNC(=O)[C@@H]2C[C@@H](O)CN2C(=O)[C@@H](NC(=O)CCOCCOCCOCCN2CCN(CCNc3ccc(S(=O)(=O)NC(=O)c4ccc(N5CCN(CC6=C(c7ccc(Cl)cc7)CC(C)(C)CC6)CC5)cc4N4CCCOc5nc6[nH]ccc6cc54)cc3[N+](=O)[O-])CC2)C(C)(C)C)cc1 [Example 54] | 9.22 | 7.30 | –
10 | CC1(C)CCC(CN2CCN(c3ccc(C(=O)NS(=O)(=O)c4ccc(NC[C@H]5COCCO5)c([N+](=O)[O-])c4)c(N4CCOCc5nc6[nH]ccc6cc54)c3)CC2)=C(c2ccc(Cl)cc2)C1 [Example 41, 4-(4-[[2-(4-chlorophenyl)-4,4-dimethylcyclohex-1-en-1-yl]methyl]piperazin-1-yl)-N-(4-[[(2S)-1,4-dioxan-2-ylmethyl]amino]-3-nitrobenzenesulfonyl)-2-[13-oxa-2,4,10-triazatricyclo[7.5.0.0^[3,7]]tetradeca-1(9),2,5,7-tetraen-10-yl]benzamide hydrochloride] | – | 8.96 | 10.00
11 | Cc1ncsc1-c1ccc(CNC(=O)[C@@H]2C[C@@H](O)CN2C(=O)[C@@H](NC(=O)CCOCCN2CCN(CCNc3ccc(S(=O)(=O)NC(=O)c4ccc(N5CCN(CC6=C(c7ccc(Cl)cc7)CC(C)(C)CC6)CC5)cc4N4CCCOc5nc6[nH]ccc6cc54)cc3[N+](=O)[O-])CC2)C(C)(C)C)cc1 [Example 58] | 9.52 | 6.99 | –
12 | O=C(NS(=O)(=O)c1ccc(NC[C@H]2COCCO2)c([N+](=O)[O-])c1)c1ccc(N2CCN(CC3=C(c4ccc(Cl)cc4)CCCCC3)CC2)cc1N1CCCOc2nc3[nH]ccc3cc21 [Example 75, 4-(4-[[2-(4-chlorophenyl)cyclohept-1-en-1-yl]methyl]piperazin-1-yl)-N-(4-[[(2S)-1,4-dioxan-2-ylmethyl]amino]-3-nitrobenzenesulfonyl)-2-[14-oxa-2,4,10-triazatricyclo[7.5.0.0^[3,7]]tetradeca-1(9),2,5,7-tetraen-10-yl]benzamide] | 9.22 | 8.57 | –
13 | CC1(C)CCC(CN2CCN(c3ccc(C(=O)NS(=O)(=O)c4ccc(NC[C@H]5COCCO5)c([N+](=O)[O-])c4)c(N4CCCOc5nc(N)ccc54)c3)CC2)=C(c2ccc(Cl)cc2)C1 [Example 39, 2-[7-amino-2H,3H,4H-pyrido[2,3-b][1,4]oxazepin-1-yl]-4-(4-[[2-(4-chlorophenyl)-4,4-dimethylcyclohex-1-en-1-yl]methyl]piperazin-1-yl)-N-(4-[[(2S)-1,4-dioxan-2-ylmethyl]amino]-3-nitrobenzenesulfonyl)benzamide] | 8.82 | 6.26 | –
